Results on seven compounds are retold here after US20260108527A1, “POLO LIKE KINASE 4 INHIBITORS” (ORIC Pharmaceuticals, Inc., priority 2022, published 2026).

For test [1], the system named is CHP134. As to the kind of experiment: CHP134 CellTiter-Glo (CTG) Assay. Format: cell-based. The settings on record: Homo sapiens, CHP-134, 120 h; viable cells by CellTiter-Glo after 5 days. A digest of the protocol: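 CHP134 cells were seeded at 200 cells/well for 16 h, then treated in quadruplicate with nine-point 1:3 serial dilutions at 37 °C, 5% CO2. Viable cells were read by CellTiter-Glo luminescence after 5 days, and IC50 values were derived from the dose-response curves.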
On the technique in general: Cellular ATP, detected with luciferase, serves as a proxy for viable cell number.

For test [2], the target named is T1, human recombinant Aurora A (Homo sapiens, UniProt O14965).
T1 construct: purchased ThermoFisher PR5935A
T1 sequence (O14965 1-403): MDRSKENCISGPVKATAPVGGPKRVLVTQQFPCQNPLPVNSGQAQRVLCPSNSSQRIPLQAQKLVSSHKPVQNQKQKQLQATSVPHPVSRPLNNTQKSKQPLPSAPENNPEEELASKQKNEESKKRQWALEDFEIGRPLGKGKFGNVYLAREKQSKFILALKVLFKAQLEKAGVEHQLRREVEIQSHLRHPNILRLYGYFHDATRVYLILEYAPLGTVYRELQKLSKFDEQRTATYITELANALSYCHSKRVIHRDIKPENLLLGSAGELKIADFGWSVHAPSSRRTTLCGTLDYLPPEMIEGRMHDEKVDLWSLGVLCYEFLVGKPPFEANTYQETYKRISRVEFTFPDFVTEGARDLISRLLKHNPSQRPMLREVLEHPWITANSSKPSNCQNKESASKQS
As to the kind of experiment: Aurora A Kinase Biochemical Assay (ADP-Glo). The settings on record: selectivity ratio; Aurora A 2.5 nM, 20 μM ATP. The method, boiled down: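 Human recombinant Aurora A at 2.5 nM final was preincubated with compound (11-point, 3-fold titration) for 15 min at RT, then reacted with 20 μM ATP and 4.7 μM MBP for 2 h at RT in HEPES pH 7.5 buffer. ADP formed was read by ADP-Glo luminescence; IC50 from four-parameter fit.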

As a reminder, the IC50 is the concentration at which inhibition is half-maximal. Lower therefore signals greater potency in that assay. In turn, `COc1ccc2c(c1)[C@]1(C[C@H]1c1ccc3c(Nc4cc(-c5cnn(CC(F)F)c5)ccc4OC)n[nH]c3c1)C(=O)N2` [Example 39, (1R,2S)-2-(3-{5-[1-(2,2-difluoroethyl)-1H-pyrazol-4-yl]-2-methoxyanilino}-1H-indazol-6-yl)-5′-methoxyspiro[cyclopropane-1,3′-indol]-2′(1′H)-one] came in with an IC50 in test [1] of 202 nM. Also, the “[Aurora A IC50 (nM)]/[PLK4 IC50 (nM)]” value in test [2] is listed as 1647.6978.
On the same counts, the results for `COc1ccc2c(c1)[C@]1(C[C@H]1c1ccc3c(Nc4nc(-c5cnco5)ncc4OC)n[nH]c3c1)C(=O)N2` [Example 40, (1R,2S)-5′-methoxy-2-(3-{[5-methoxy-2-(1,3-oxazol-5-yl)pyrimidin-4-yl]amino}-1H-indazol-6-yl)spiro[cyclopropane-1,3′-indol]-2′(1′H)-one] are 237 nM and 288.4.
On the same counts, the results for `CCOc1ncc(-c2nccs2)cc1Nc1n[nH]c2cc([C@@H]3C[C@@]34C(=O)Nc3ccc(OC)cc34)ccc12` [Example 41, (1R,2S)-2-(3-{[2-ethoxy-5-(1,3-thiazol-2-yl)pyridin-3-yl]amino}-1H-indazol-6-yl)-5′-methoxyspiro[cyclopropane-1,3′-indol]-2′(1′H)-one] are 131 nM and 4711.9113.
On the same counts, the results for `COc1ccc2c(c1)[C@]1(C[C@H]1c1ccc3c(Nc4cc(-c5cocn5)cnc4OC)n[nH]c3c1)C(=O)N2` [Example 42, (1R,2S)-5′-methoxy-2-(3-{[2-methoxy-5-(1,3-oxazol-4-yl)pyridin-3-yl]amino}-1H-indazol-6-yl)spiro[cyclopropane-1,3′-indol]-2′(1′H)-one] are 281 nM and 157.8304.
In test [1], `CCOc1cnc(-c2nccs2)nc1Nc1n[nH]c2cc([C@@H]3C[C@@]34C(=O)Nc3ccc(OC)cc34)ccc12` [Example 44, (1R,2S)-2-(3-{[5-ethoxy-2-(1,3-thiazol-2-yl)pyrimidin-4-yl]amino}-1H-indazol-6-yl)-5′-methoxyspiro[cyclopropane-1,3′-indol]-2′(1′H)-one] came in with an IC50 of 22 nM. Also, the “[Aurora A IC50 (nM)]/[PLK4 IC50 (nM)]” value in test [2] worked out at 702.5.
The like results for `CCOc1cnc(C#CC(C)(C)O)nc1Nc1n[nH]c2cc([C@@H]3C[C@@]34C(=O)Nc3ccc(OC)cc34)ccc12` [Example 45, (1R,2S)-2-(3-((5-ethoxy-2-(3-hydroxy-3-methylbut-1-yn-1-yl)pyrimidin-4-yl)amino)-1H-indazol-6-yl)-5′-methoxyspiro[cyclopropane-1,3′-indolin]-2′-one] were, in that order, 890 nM and 42971.2230.
The like results for `COc1ccc2c(c1)[C@]1(C[C@H]1c1ccc3c(Nc4cc(-c5cnn(CC(F)F)c5)cnc4OC)n[nH]c3c1)C(=O)N2` [Example 46, (1R,2S)-2-(3-((5-(1-(2,2-difluoroethyl)-1H-pyrazol-4-yl)-2-methoxypyridin-3-yl)amino)-1H-indazol-6-yl)-5′-methoxyspiro[cyclopropane-1,3′-indolin]-2′-one] were, in that order, 370 nM and 469.9759.
